Molecules are shown by their SMILES. pIC50: −log10 of the molar value.

The target in the first test is GST-hRIPK1 (8-327) (Homo sapiens (Human), UniProt Q13546). Description: Fluorescent Polarization Binding (FP Binding) assay.
Chain of GST-hRIPK1 (8-327) (Q13546 8-327): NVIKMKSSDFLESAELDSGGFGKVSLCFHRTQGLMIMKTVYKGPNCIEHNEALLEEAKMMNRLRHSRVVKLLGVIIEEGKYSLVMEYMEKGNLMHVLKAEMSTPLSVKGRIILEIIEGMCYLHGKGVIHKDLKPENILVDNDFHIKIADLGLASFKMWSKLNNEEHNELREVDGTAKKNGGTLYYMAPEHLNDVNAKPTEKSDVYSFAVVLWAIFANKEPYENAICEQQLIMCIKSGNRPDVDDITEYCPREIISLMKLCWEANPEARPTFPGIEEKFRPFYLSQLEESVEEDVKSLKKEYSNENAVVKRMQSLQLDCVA
Details: not given
`O=C(N[C@@H]1CC2(CC2)c2cc(F)cc(F)c2NC1=O)c1nnc(Cc2ccccc2)[nH]1` [Example 103A, (R)-5-benzyl-N-(7,9-difluoro-2-oxo-1,2,3,4-tetrahydrospiro[benzo[b]azepine-5,1′-cyclopropan]-3-yl)-4H-1,2,4-triazole-3-carboxamide]: the pIC50 was < 5.52.

In the case of `CN1C(=O)[C@@H](NC(=O)c2nn(Cc3cnn(C)c3)cc2F)COc2cccnc21` [Example 184, (S)-4-fluoro-1-((1-methyl-1H-pyrazol-4-yl)methyl)-N-(5-methyl-4-oxo-2,3,4,5-tetrahydropyrido[3,2-b][1,4]oxazepin-3-yl)-1H-pyrazole-3-carboxamide], the pIC50 is 6.00 to 10.00.

The test system of a further test is FADD-deficient Jurkat cells. Put plainly: Cellular necroptosis assay (human TNFα-induced necrosis, CellTiter-Glo). It is filed as cell-based. The note with it: Homo sapiens, Jurkat, 48 h, TNFα 10 ng/mL, read-out: Cell IC50.
On to `CN1C(=O)[C@@H](NC(=O)c2nn(Cc3cocn3)cc2F)COc2cccnc21` [Example 209, (S)-4-fluoro-N-(5-methyl-4-oxo-2,3,4,5-tetrahydropyrido[3,2-b][1,4]oxazepin-3-yl)-1-(oxazol-4-ylmethyl)-1H-pyrazole-3-carboxamide], for which the pIC50 was 6.00 to 10.00.

`CN1C(=O)[C@@H](NC(=O)c2nn(Cc3ccccc3)cc2F)COc2ccccc21` [Example 64, (S)-1-benzyl-4-fluoro-N-(5-methyl-4-oxo-2,3,4,5-tetrahydrobenzo[b][1,4]oxazepin-3-yl)-1H-pyrazole-3-carboxamide]: the pIC50 is 6.00 to 10.00.

Regarding `CN1C(=O)[C@@H](NC(=O)c2cc(C3(c4ccccc4)CC3)[nH]n2)COc2cccnc21` [Example 73, (S)—N-(5-methyl-4-oxo-2,3,4,5-tetrahydropyrido[3,2-b][1,4]oxazepin-3-yl)-5-(1-phenylcyclopropyl)-1H-pyrazole-3-carboxamide], the pIC50 is 6.00 to 10.00.

As for `COc1cccc(Cn2cc(F)c(C(=O)N[C@H]3COc4ccccc4N(C)C3=O)n2)n1` [Example 220, (S)-4-fluoro-1-((6-methoxypyridin-2-yl)methyl)-N-(5-methyl-4-oxo-2,3,4,5-tetrahydrobenzo[b][1,4]oxazepin-3-yl)-1H-pyrazole-3-carboxamide], the pIC50 was 6.00 to 10.00.

As for `CN1C(=O)[C@@H](NC(=O)c2cc(Cc3ccccc3)on2)CCc2sc(Cl)cc21` (stereo in doubt) [Example 1A, 5-Benzyl-N-(2-chloro-4-methyl-5-oxo-4H,5H,6H,7H,8H-thieno[3,2-b]azepin-6-yl)-1,2-oxazole-3-carboxamide], the pIC50 was 6.00 to 10.00.

For the molecule `CN1C(=O)[C@@H](NC(=O)c2ncc(Cc3ccccc3)s2)COc2cccnc21` [Example 86, (S)-5-benzyl-N-(5-methyl-4-oxo-2,3,4,5-tetrahydropyrido[3,2-b][1,4]oxazepin-3-yl)thiazole-2-carboxamide], the pIC50 was 6.00 to 10.00.

With `CN1C(=O)[C@@H](NC(=O)c2noc(Cc3ccccc3)n2)COc2cccnc21` [Example 215, (S)-5-benzyl-N-(5-methyl-4-oxo-2,3,4,5-tetrahydropyrido[3,2-b][1,4]oxazepin-3-yl)-1,2,4-oxadiazole-3-carboxamide], the pIC50 was 6.00 to 10.00.

In the case of `CN1C(=O)[C@@H](NC(=O)c2cc(Cc3ccccc3)on2)[C@H]2C[C@H]2c2ccccc21` [Example 7A, 5-benzyl-N-((2S)-4-methyl-3-oxo-1,1a,2,3,4,8b-hexahydrobenzo[b]cyclopropa[d]azepin-2-yl)isoxazole-3-carboxamide], the pIC50 was 6.00 to 10.00.

For the molecule `CN1C(=O)[C@@H](NC(=O)c2coc(C3(c4ccccc4)CC3)n2)COc2ccccc21` [Example 61, (S)—N-(5-methyl-4-oxo-2,3,4,5-tetrahydrobenzo[b][1,4]oxazepin-3-yl)-2-(1-phenylcyclopropyl)oxazole-4-carboxamide], the pIC50 was 6.00 to 10.00.

The test is the same for the next values; noted with them: Homo sapiens, Jurkat, 48 h, read-out: Cell IC50, TNFα 10 ng/mL, 48 h.
For the molecule `O=C(N[C@H]1CCc2ccccc2-n2ccnc21)c1nnc(Cc2ccccc2)[nH]1` [Example 52, (S)-5-benzyl-N-(5,6-dihydro-4H-benzo[f]imidazo[1,2-a]azepin-4-yl)-4H-1,2,4-triazole-3-carboxamide], the pIC50 is 6.00 to 10.00.

For the origin of these results see patent publication US10604535B2, “Compounds, compositions and methods” (Denali Therapeutics Inc., priority 2016, dated 2020).
